Experimental data from publication PMC4153739 (Biochemistry, 2012).
Non-standard residues stand in square brackets, D forms with d. Residues, ends and D or L forms follow the SMILES beside them. Gla = N[C@@H](CC(C(=O)O)C(=O)O)C(=O)O

Tested on: four NR2 NMDA receptor subtypes (NR2A, NR2B, NR2C, NR2D with NR1-2b)
Format: cell-based, rat

SMILES: CC(C)C[C@H](NC(=O)[C@H](CC(C(=O)O)C(=O)O)NC(=O)[C@H](CCCNC(=N)N)NC(=O)[C@H](C)NC(=O)[C@H](Cc1ccccc1)NC(=O)[C@H](CC(C(=O)O)C(=O)O)NC(=O)[C@H](CCC(N)=O)NC(=O)[C@H](CC(N)=O)NC(=O)[C@H](CC(C(=O)O)C(=O)O)NC(=O)[C@H](C)NC(=O)[C@H](CC(C)C)NC(=O)[C@H](CC(C(=O)O)C(=O)O)NC(=O)[C@H](CC(C(=O)O)C(=O)O)NC(=O)[C@H](CCC(=O)O)NC(=O)CN)C(=O)N[C@@H](C)C(=O)N[C@@H](CC(N)=O)C(N)=O [ConRl-B[desKAO;N8Q9]] (H-GE[Gla][Gla]LA[Gla]NQ[Gla]FAR[Gla]LAN-NH2; N-terminus assumed)
- activity on the four NR2 NMDA receptor subtypes, in words: little or no activity
